# Source: patent US6914045B2, “Glycopeptide antibiotics” (Wyeth Holdings Corporation, priority 2001, dated 2005)
# Key:
# [1] = clinical pathology (serum clinical chemistry) in mice; type: in vivo; settings: CD-1 mice, 20 mg/kg intravenously daily for 9 days, sera day 10
# Description: 20-day-old CD-1 mice were divided into a vehicle control group (5 mice) and a treatment group (5 mice). Samples of glycopeptide antibiotics were administered at 20 mg/kg intravenously daily for 9 days.
# Streptococcus sp. = experiment: in vitro antibacterial evaluation, MIC by broth dilution; type: cell-based; settings: broth dilution, 18 hours at 35° C.
# Procedure, shortened: (§1)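 Broth dilution per NCCLS M7-A2 in Mueller-Hinton II medium, inoculum 5×10^5 CFU/mL, antibiotic range 64-0.06 μg/mL. MIC taken as lowest concentration inhibiting growth; Gram-positive panel includes recent clinical isolates resistant to methicillin, penicillin and/or vancomycin.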
# Escherichia coli = experiment: as above; type: cell-based; settings: 18 hours at 35° C.
# Procedure, shortened: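 Following National Committee for Clinical Laboratory Standards recommendations (M7-A2), susceptibility was measured by dilution in Muller-Hinton II […]. Bacteria were seeded at 5×10^5 CFU/mL against compound concentrations from 64 down to 0.06 μg/mL.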
# Enterococcus sp. = experiment: as above; type: cell-based; settings: broth dilution, 18 hours at 35° C.
# Procedure, shortened: as §1
# Staphylococcus sp. = experiment: as above; type: cell-based; settings: broth dilution, 18 hours at 35° C.
# Procedure, shortened: as §1
# [2] = anatomic pathology (histopathology of heart and kidney) in mice; type: in vivo; settings: CD-1 mice, 20 mg/kg intravenously daily for 9 days, necropsy day 10, microscopic histopathology
# Description: Samples of tissues from necropsied mice were formalin-fixed, paraffin-embedded, sectioned, stained with hematoxylin and eosin, and examined microscopically. Histopathologic findings were recorded. These findings were subjectively graded on a scale corresponding to slight, mild, moderate, marked and severe as compared to untreated controls.
compound,measurement,setting,value
CC(c1ccccc1)C1NC(=O)CNC(=O)C(CO)NC(=O)C(CC2CNC(=N)N2C2OC(CO)C(O)C(O)C2O)NC(=O)C(CC2CNC(=N)N2)NC(=O)C(Cc2ccc(OC3OC(CO)C(OC4OC(CO)C(O)C(O)C4O)C(O)C3O)cc2)NC1=O (centres unmarked) [Example 277a],"Clinical Chemistry (Day 10) % of Control, BUN",[1],+110%
same,MIC Streptococcus pneumoniae (ATCC 6301),Streptococcus sp.; strain ATCC 6301,>128 µg/mL
same,MIC Streptococcus pneumoniae (GC 1894),Streptococcus sp.; strain GC 1894,>128 µg/mL
same,MIC Streptococcus pyogenes (GC 4563),Streptococcus sp.; strain GC 4563,>128 µg/mL
same,MIC Streptococcus agalactiae (GC 4564),Streptococcus sp.; strain GC 4564,>128 µg/mL
same,MIC Streptococcus pneumoniae (GC 4565),Streptococcus sp.; strain GC 4565,>128 µg/mL
same,MIC Escherichia coli (ATCC 25922),Escherichia coli; Escherichia coli (ATCC 25922),>128 µg/mL
same,MIC Escherichia coli (GC 4559),Escherichia coli; Escherichia coli (GC 4559),>128 µg/mL
same,MIC Escherichia coli (GC 4560),Escherichia coli; Escherichia coli (GC 4560),>128 µg/mL
same,MIC Enterococcus avium (GC 4558),Enterococcus sp.; Enterococcus avium (GC 4558),128 µg/mL
same,MIC Enterococcus faecalis (ATCC 29212),Enterococcus sp.; Enterococcus faecalis (ATCC 29212),>128 µg/mL
same,MIC Enterococcus faecalis (GC 4553),Enterococcus sp.; Enterococcus faecalis (GC 4553),>128 µg/mL
same,MIC Enterococcus faecalis (GC 4554),Enterococcus sp.; Enterococcus faecalis (GC 4554),>128 µg/mL
same,MIC Enterococcus faecalis (GC 6189),Enterococcus sp.; Enterococcus faecalis (GC 6189),>128 µg/mL
same,MIC Enterococcus faecium (GC 2243),Enterococcus sp.; Enterococcus faecium (GC 2243),>128 µg/mL
same,MIC Enterococcus faecium (GC 4556),Enterococcus sp.; Enterococcus faecium (GC 4556),>128 µg/mL
same,MIC Enterococcus faecium (GC 4557),Enterococcus sp.; Enterococcus faecium (GC 4557),128 µg/mL
same,MIC Enterococcus faecalis (ATCC 29212),Enterococcus sp.; strain ATCC 29212,>128 µg/mL
same,MIC Enterococcus faecalis (GC 2242),Enterococcus sp.; strain GC 2242,>128 µg/mL
same,MIC Enterococcus faecium (GC 2243),Enterococcus sp.; strain GC 2243,>128 µg/mL
same,MIC Enterococcus faecalis (GC 2691),Enterococcus sp.; strain GC 2691,>128 µg/mL
same,MIC Enterococcus faecalis (GC 3059),Enterococcus sp.; strain GC 3059,>128 µg/mL
same,MIC Enterococcus faecalis (GC 4552),Enterococcus sp.; strain GC 4552,>128 µg/mL
same,MIC Enterococcus faecalis (GC 4553),Enterococcus sp.; strain GC 4553,>128 µg/mL
same,MIC Enterococcus faecalis (GC 4554),Enterococcus sp.; strain GC 4554,>128 µg/mL
same,MIC Enterococcus faecium (GC 4556),Enterococcus sp.; strain GC 4556,>128 µg/mL
same,MIC Enterococcus faecium (GC 4557),Enterococcus sp.; strain GC 4557,128 µg/mL
same,MIC Enterococcus avium (GC 4558),Enterococcus sp.; strain GC 4558,128 µg/mL
same,MIC Enterococcus faecalis (GC 6189),Enterococcus sp.; strain GC 6189,>128 µg/mL
same,MIC Coagulase Negative Staphylococcus (GC 4547),Staphylococcus sp.,>128 µg/mL
same,MIC Coagulase Negative Staphylococcus (GC 4548),Staphylococcus sp.,>128 µg/mL
same,MIC Coagulase Negative Staphylococcus (GC 4549),Staphylococcus sp.,>128 µg/mL
same,MIC Coagulase Negative Staphylococcus (GC 4551),Staphylococcus sp.,>128 µg/mL
same,MIC Staphylococcus aureus (ATCC 29213),Staphylococcus sp.,>128 µg/mL
same,MIC Staphylococcus aureus (GC 1131),Staphylococcus sp.,>128 µg/mL
same,MIC Staphylococcus aureus (GC 3051),Staphylococcus sp.,>128 µg/mL
same,MIC Staphylococcus aureus (GC 3053),Staphylococcus sp.,>128 µg/mL
same,MIC Staphylococcus aureus (GC 4541),Staphylococcus sp.,>128 µg/mL
same,MIC Staphylococcus aureus (GC 4542),Staphylococcus sp.,>128 µg/mL
same,MIC Staphylococcus aureus (GC 4544),Staphylococcus sp.,>128 µg/mL
same,MIC Staphylococcus aureus (GC 4545),Staphylococcus sp.,>128 µg/mL
same,MIC Staphylococcus aureus-SMITH (GC 4543),Staphylococcus sp.,>128 µg/mL
same,MIC Staphylococcus haemolyticus (GC 4546),Staphylococcus sp.,>128 µg/mL
same,MIC Staphylococcus aureus (ATCC 29213),Staphylococcus sp.; strain ATCC 29213,>128 µg/mL
same,MIC Staphylococcus aureus (GC 1131),Staphylococcus sp.; strain GC 1131,>128 µg/mL
same,MIC Staphylococcus aureus (GC 3051),Staphylococcus sp.; strain GC 3051,>128 µg/mL
same,MIC Staphylococcus aureus (GC 3053),Staphylococcus sp.; strain GC 3053,>128 µg/mL
same,MIC Staphylococcus aureus (GC 4541),Staphylococcus sp.; strain GC 4541,>128 µg/mL
same,MIC Staphylococcus aureus (GC 4542),Staphylococcus sp.; strain GC 4542,>128 µg/mL
same,MIC Staphylococcus aureus (GC 4544),Staphylococcus sp.; strain GC 4544,>128 µg/mL
same,MIC Staphylococcus aureus (GC 4545),Staphylococcus sp.; strain GC 4545,>128 µg/mL
same,MIC Staphylococcus haemolyticus (GC 4546),Staphylococcus sp.; strain GC 4546,>128 µg/mL
same,MIC Coagulase Negative Staphylococcus (GC 4547),Staphylococcus sp.; strain GC 4547,>128 µg/mL
same,MIC Coagulase Negative Staphylococcus (GC 4548),Staphylococcus sp.; strain GC 4548,>128 µg/mL
same,MIC Coagulase Negative Staphylococcus (GC 4549),Staphylococcus sp.; strain GC 4549,>128 µg/mL
same,MIC Coagulase Negative Staphylococcus (GC 4551),Staphylococcus sp.; strain GC 4551,>128 µg/mL
same,MIC Staphylococcus aureus-SMITH (GC 4543),Staphylococcus sp.; strain SMITH GC 4543,>128 µg/mL
same,"Anatomical Pathology (Day 10), Heart",[2],0
same,"Anatomical Pathology (Day 10), Kidney",[2],++
